Measured values taken from patent US6355799B1, “Substituted benzene compounds, process for their preparation, and herbicidal and defoliant compositions containing them” (ISK Americas Incorporated, priority 1997, dated 2002).

Legend:
Format in all cases: in vivo
[1] = system: field corn (Zea mays L., var. Dekalb 535, CORN); assay: Pre-emerge test, crop safety; details: rated 14 days after application, 0 = no damage, 100 = complete death
Method in brief: (§1)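 Compounds in acetone were track-sprayed at 15-1000 g ai/ha (187 l/ha) on sandy loam pots: pre-emerge one day after seeding, post-emerge at 2-3 leaf stage with 0.25% v/v non-ionic surfactant. Phytotoxicity was rated 14 days later on a 0 (no damage) to 100 (complete death) scale.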

[2] = system: upland rice (Oryza sp., var. Tebonnet, RICE); assay: Pre-emerge test, crop safety; details: rated 14 days after application, 0 = no damage, 100 = complete death
Method in brief: as §1

[3] = system: sicklepod (Cassia obtusifolia, CASOB); assay: Pre-emerge test, greenhouse herbicide activity screening; details: rated 14 days after application, 0 = no damage, 100 = complete death
Method in brief: (§2)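 Applied at 15–1000 g ai/ha from acetone in 187 l/ha spray volume. Post-emergence applications included 0.25% v/v non-ionic surfactant and reached plants sown 8–21 days before. Pre-emergence applications were incorporated by surface watering. Efficacy or crop damage was rated on a 0–100 scale after 14 days.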

[4] = system: ivyleaf morningglory (Ipomoea hederacea, IPOHE); assay: as above; details: rated 14 days after application, 0 = no damage, 100 = complete death
Method in brief: as §2

[5] = system: green foxtail (Setaria viridis, SETVI); assay: as above; details: rated 14 days after application, 0 = no damage, 100 = complete death
Method in brief: as §2

[6] = system: barnyardgrass (Echinochloa crus-galli, ECHCG); assay: as above; details: rated 14 days after application, 0 = no damage, 100 = complete death
Method in brief: as §2

[7] = system: large crabgrass (Digitaria sanguinalis, DIGSA); assay: as above; details: rated 14 days after application, 0 = no damage, 100 = complete death
Method in brief: as §2

[8] = system: velvetleaf (Abutilon theophrasti, ABUTH); assay: as above; details: rated 14 days after application, 0 = no damage, 100 = complete death
Method in brief: as §2

[9] = system: lambsquarters (Chenopodium album, CHEAL); assay: as above; details: rated 14 days after application, 0 = no damage, 100 = complete death
Method in brief: as §2

[10] = system: johnsongrass (Sorghum halepense, SORHA); assay: as above; details: rated 14 days after application, 0 = no damage, 100 = complete death
Method in brief: as §2

[11] = system: sicklepod (Cassia obtusifolia, CASOB); assay: Post-emerge test, greenhouse herbicide activity screening; details: post-emerge, 14 days after application, rating scale 0-100
Method in brief: as §1

[12] = system: redroot pigweed (Amaranthus retroflexus, AMARE); assay: as above; details: post-emerge, 14 days after application, rating scale 0-100
Method in brief: as §1

[13] = system: ivyleaf morningglory (Ipomoea hederacea, IPOHE); assay: as above; details: post-emerge, 14 days after application, rating scale 0-100
Method in brief: as §1

[14] = system: green foxtail (Setaria viridis, SETVI); assay: as above; details: post-emerge, 14 days after application, rating scale 0-100
Method in brief: as §1

[15] = system: barnyardgrass (Echinochloa crus-galli, ECHCG); assay: as above; details: post-emerge, 14 days after application, rating scale 0-100
Method in brief: as §1

[16] = system: large crabgrass (Digitaria sanguinalis, DIGSA); assay: as above; details: post-emerge, 14 days after application, rating scale 0-100
Method in brief: as §1

[17] = system: velvetleaf (Abutilon theophrasti, ABUTH); assay: as above; details: post-emerge, 14 days after application, rating scale 0-100
Method in brief: as §1

[18] = system: lambsquarters (Chenopodium album, CHEAL); assay: as above; details: post-emerge, 14 days after application, rating scale 0-100
Method in brief: as §1

[19] = system: johnsongrass (Sorghum halepense, SORHA); assay: as above; details: post-emerge, 14 days after application, rating scale 0-100
Method in brief: as §1

[20] = system: field corn (Zea mays L., var. Dekalb 535, CORN); assay: Post-emerge test, crop safety; details: post-emerge, 14 days after application, rating scale 0-100
Method in brief: as §2

[21] = system: upland rice (Oryza sp., var. Tebonnet, RICE); assay: Post-emerge test, crop safety; details: post-emerge, 14 days after application, rating scale 0-100
Method in brief: as §2

[22] = system: redroot pigweed (Amaranthus retroflexus, AMARE); assay: Pre-emerge test, greenhouse herbicide activity screening; details: rated 14 days after application, 0 = no damage, 100 = complete death
Method in brief: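 Herbicidal damage is scored 0 (none) to 100 (complete plant death) two weeks after a simulated field spray. Rates span 15–1000 g ai/ha, delivered in acetone at 187 l/ha. For post-emergence treatments, plants have 2–3 leaves and the spray carries 0.25% v/v non-ionic surfactant.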

## COc1c(Cl)cc(F)c(-n2c(=O)cc(C(F)(F)F)n(C)c2=O)c1NC(=O)COc1ccccc1 [2-119]
[1]; 63 g ai/ha
  Pre-emerge phytotoxicity rating (0-100), crop damage, CORN: 20
[1]; 250 g ai/ha
  Pre-emerge phytotoxicity rating (0-100), crop damage, CORN: 90
[2]; 63 g ai/ha
  Pre-emerge phytotoxicity rating (0-100), crop damage, RICE: 70
[2]; 250 g ai/ha
  Pre-emerge phytotoxicity rating (0-100), crop damage, RICE: 100
[3]; 63 g ai/ha
  Pre-emerge Herbicidal Activity, phytotoxicity rating (0-100), CASOB: 60
[3]; 250 g ai/ha
  Pre-emerge Herbicidal Activity, phytotoxicity rating (0-100), CASOB: 90
[4]; 63 g ai/ha
  Pre-emerge Herbicidal Activity, phytotoxicity rating (0-100), IPOHE: 70
[4]; 250 g ai/ha
  Pre-emerge Herbicidal Activity, phytotoxicity rating (0-100), IPOHE: 100
[5]; 63 g ai/ha
  Pre-emerge Herbicidal Activity, phytotoxicity rating (0-100), SETVI: 100
[5]; 250 g ai/ha
  Pre-emerge Herbicidal Activity, phytotoxicity rating (0-100), SETVI: 100
[6]; 63 g ai/ha
  Pre-emerge Herbicidal Activity, phytotoxicity rating (0-100), ECHCG: 70
[6]; 250 g ai/ha
  Pre-emerge Herbicidal Activity, phytotoxicity rating (0-100), ECHCG: 95
[7]; 63 g ai/ha
  Pre-emerge Herbicidal Activity, phytotoxicity rating (0-100), DIGSA: 70
[7]; 250 g ai/ha
  Pre-emerge Herbicidal Activity, phytotoxicity rating (0-100), DIGSA: 100
[8]; 63 g ai/ha
  Pre-emerge Herbicidal Activity, phytotoxicity rating (0-100), ABUTH: 100
[8]; 250 g ai/ha
  Pre-emerge Herbicidal Activity, phytotoxicity rating (0-100), ABUTH: 100
[9]; 63 g ai/ha
  Pre-emerge Herbicidal Activity, phytotoxicity rating (0-100), CHEAL: 100
[9]; 250 g ai/ha
  Pre-emerge Herbicidal Activity, phytotoxicity rating (0-100), CHEAL: 100
[10]; 63 g ai/ha
  Pre-emerge Herbicidal Activity, phytotoxicity rating (0-100), SORHA: 75
[10]; 250 g ai/ha
  Pre-emerge Herbicidal Activity, phytotoxicity rating (0-100), SORHA: 100
[11]; 63 g ai/ha
  phytotoxicity rating CASOB: 30
[11]; 250 g ai/ha
  phytotoxicity rating CASOB: 60
[12]; 63 g ai/ha
  phytotoxicity rating AMARE: 90
[12]; 250 g ai/ha
  phytotoxicity rating AMARE: 100
[13]; 63 g ai/ha
  phytotoxicity rating IPOHE: 100
[13]; 250 g ai/ha
  phytotoxicity rating IPOHE: 100
[14]; 63 g ai/ha
  phytotoxicity rating SETVI: 40
[14]; 250 g ai/ha
  phytotoxicity rating SETVI: 90
[15]; 63 g ai/ha
  phytotoxicity rating ECHCG: 40
[15]; 250 g ai/ha
  phytotoxicity rating ECHCG: 90
[16]; 63 g ai/ha
  phytotoxicity rating DIGSA: 30
[16]; 250 g ai/ha
  phytotoxicity rating DIGSA: 80
[17]; 63 g ai/ha
  phytotoxicity rating ABUTH: 100
[17]; 250 g ai/ha
  phytotoxicity rating ABUTH: 100
[18]; 63 g ai/ha
  phytotoxicity rating CHEAL: 80
[18]; 250 g ai/ha
  phytotoxicity rating CHEAL: 100
[19]; 63 g ai/ha
  phytotoxicity rating SORHA: 60
[19]; 250 g ai/ha
  phytotoxicity rating SORHA: 90
[20]; 63 g ai/ha
  phytotoxicity rating CORN: 70
[20]; 250 g ai/ha
  phytotoxicity rating CORN: 90
[21]; 63 g ai/ha
  phytotoxicity rating RICE: 60
[21]; 250 g ai/ha
  phytotoxicity rating RICE: 90
[22]; 63 g ai/ha
  Pre-emerge Herbicidal Activity, phytotoxicity rating (0-100), AMARE: 100
[22]; 250 g ai/ha
  Pre-emerge Herbicidal Activity, phytotoxicity rating (0-100), AMARE: 100

## COc1c(Cl)cc(F)c(-n2c(=O)cc(C(F)(F)F)n(C)c2=O)c1N(C(=O)COc1ccccc1)C(=O)COc1ccccc1 [2-120]
[1]; 63 g ai/ha
  Pre-emerge phytotoxicity rating (0-100), crop damage, CORN: 0
[1]; 250 g ai/ha
  Pre-emerge phytotoxicity rating (0-100), crop damage, CORN: 90
[2]; 63 g ai/ha
  Pre-emerge phytotoxicity rating (0-100), crop damage, RICE: 80
[2]; 250 g ai/ha
  Pre-emerge phytotoxicity rating (0-100), crop damage, RICE: 95
[3]; 63 g ai/ha
  Pre-emerge Herbicidal Activity, phytotoxicity rating (0-100), CASOB: 40
[3]; 250 g ai/ha
  Pre-emerge Herbicidal Activity, phytotoxicity rating (0-100), CASOB: 70
[4]; 63 g ai/ha
  Pre-emerge Herbicidal Activity, phytotoxicity rating (0-100), IPOHE: 50
[4]; 250 g ai/ha
  Pre-emerge Herbicidal Activity, phytotoxicity rating (0-100), IPOHE: 80
[5]; 63 g ai/ha
  Pre-emerge Herbicidal Activity, phytotoxicity rating (0-100), SETVI: 70
[5]; 250 g ai/ha
  Pre-emerge Herbicidal Activity, phytotoxicity rating (0-100), SETVI: 100
[6]; 63 g ai/ha
  Pre-emerge Herbicidal Activity, phytotoxicity rating (0-100), ECHCG: 60
[6]; 250 g ai/ha
  Pre-emerge Herbicidal Activity, phytotoxicity rating (0-100), ECHCG: 90
[7]; 63 g ai/ha
  Pre-emerge Herbicidal Activity, phytotoxicity rating (0-100), DIGSA: 80
[7]; 250 g ai/ha
  Pre-emerge Herbicidal Activity, phytotoxicity rating (0-100), DIGSA: 100
[8]; 63 g ai/ha
  Pre-emerge Herbicidal Activity, phytotoxicity rating (0-100), ABUTH: 100
[8]; 250 g ai/ha
  Pre-emerge Herbicidal Activity, phytotoxicity rating (0-100), ABUTH: 100
[9]; 63 g ai/ha
  Pre-emerge Herbicidal Activity, phytotoxicity rating (0-100), CHEAL: 100
[9]; 250 g ai/ha
  Pre-emerge Herbicidal Activity, phytotoxicity rating (0-100), CHEAL: 100
[10]; 63 g ai/ha
  Pre-emerge Herbicidal Activity, phytotoxicity rating (0-100), SORHA: 50
[10]; 250 g ai/ha
  Pre-emerge Herbicidal Activity, phytotoxicity rating (0-100), SORHA: 95
[11]; 63 g ai/ha
  phytotoxicity rating CASOB: 40
[11]; 250 g ai/ha
  phytotoxicity rating CASOB: 30
[12]; 63 g ai/ha
  phytotoxicity rating AMARE: 90
[12]; 250 g ai/ha
  phytotoxicity rating AMARE: 100
[13]; 63 g ai/ha
  phytotoxicity rating IPOHE: 100
[13]; 250 g ai/ha
  phytotoxicity rating IPOHE: 100
[14]; 63 g ai/ha
  phytotoxicity rating SETVI: 20
[14]; 250 g ai/ha
  phytotoxicity rating SETVI: 60
[15]; 63 g ai/ha
  phytotoxicity rating ECHCG: 40
[15]; 250 g ai/ha
  phytotoxicity rating ECHCG: 30
[16]; 63 g ai/ha
  phytotoxicity rating DIGSA: 10
[16]; 250 g ai/ha
  phytotoxicity rating DIGSA: 60
[17]; 63 g ai/ha
  phytotoxicity rating ABUTH: 100
[17]; 250 g ai/ha
  phytotoxicity rating ABUTH: 100
[18]; 63 g ai/ha
  phytotoxicity rating CHEAL: 80
[18]; 250 g ai/ha
  phytotoxicity rating CHEAL: 80
[19]; 63 g ai/ha
  phytotoxicity rating SORHA: 40
[19]; 250 g ai/ha
  phytotoxicity rating SORHA: 50
[20]; 63 g ai/ha
  phytotoxicity rating CORN: 50
[20]; 250 g ai/ha
  phytotoxicity rating CORN: 70
[21]; 63 g ai/ha
  phytotoxicity rating RICE: 50
[21]; 250 g ai/ha
  phytotoxicity rating RICE: 90
[22]; 63 g ai/ha
  Pre-emerge Herbicidal Activity, phytotoxicity rating (0-100), AMARE: 90
[22]; 250 g ai/ha
  Pre-emerge Herbicidal Activity, phytotoxicity rating (0-100), AMARE: 100
